Measurements taken from PubChem BioAssay (NCI).
Values joined by “and” are separate entries in the source; they are usually repeats but may differ in a detail not shown here. Equal values may be shown once.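 Briefly, cells in 96-well plates were exposed to five compound concentrations for 48 h, and endpoints were estimated by linear interpolation. Abbreviation: GI50, concentration required for 50% inhibition of growth. TGI marks complete inhibition of growth.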

What was measured:
Experiment in all cases: growth of human tumour cells (NCI), 48 h
HL-60(TB) leukemia = test system: HL-60(TB) leukemia
UACC-257 melanoma = test system: UACC-257 melanoma
OVCAR-3 ovarian = test system: OVCAR-3 ovarian
KM12 colon = test system: KM12 colon
SK-MEL-28 melanoma = test system: SK-MEL-28 melanoma
SNB-19 CNS = test system: SNB-19 CNS
CCRF-CEM leukemia = test system: CCRF-CEM leukemia
HCT-15 colon = test system: HCT-15 colon
SK-OV-3 ovarian = test system: SK-OV-3 ovarian
MCF7 breast = test system: MCF7 breast

| SMILES | TGI (HL-60(TB) leukemia) | TGI (UACC-257 melanoma) | TGI (OVCAR-3 ovarian) | TGI (KM12 colon) | TGI (SK-MEL-28 melanoma) | TGI (SNB-19 CNS) | TGI (CCRF-CEM leukemia) | TGI (HCT-15 colon) | TGI (SK-OV-3 ovarian) | GI50 (UACC-257 melanoma) | GI50 (OVCAR-3 ovarian) | GI50 (MCF7 breast) | TGI (MCF7 breast) | GI50 (KM12 colon) | GI50 (SK-MEL-28 melanoma) | GI50 (SK-OV-3 ovarian) | GI50 (SNB-19 CNS) | GI50 (CCRF-CEM leukemia) | GI50 (HCT-15 colon) | GI50 (HL-60(TB) leukemia) |
| --- | --- | --- | --- | --- | --- | --- | --- | --- | --- | --- | --- | --- | --- | --- | --- | --- | --- | --- | --- | --- |
| O=C(O)c1ccccc1C(=O)c1ccco1 | > 100 µM | > 100 µM | > 100 µM | > 100 µM | > 100 µM | > 100 µM | > 100 µM | > 100 µM | – | – | – | – | – | – | – | – | – | – | – | – |
| COC(=O)C1CCC(C)CC1=O (configuration not stated) | > 100 µM | > 100 µM | > 100 µM | > 100 µM | > 100 µM | > 100 µM | > 100 µM | > 100 µM | > 100 µM | – | – | – | – | – | – | – | – | – | – | – |
| O=C([O-])c1ccc([I+]c2ccccc2)cc1 | > 100 µM | > 100 µM | > 100 µM | > 100 µM | – | > 100 µM | > 100 µM | > 100 µM | > 100 µM | – | – | – | – | – | – | – | – | – | – | – |
| NC1=NC(c2ccccc2Cl)c2c(n[nH]c2N)N1 (configuration not stated) | – | > 100 µM | > 100 µM | > 100 µM | > 100 µM | > 100 µM | > 100 µM | > 100 µM | > 100 µM | 94.6 µM | 32.1 µM | 7.09 µM | > 100 µM | 29400 nM | 42.5 µM | > 100 µM | 39.7 µM | 4.59 µM | 30800 nM | – |
| Cc1ccc(C(=O)Nc2ccc(Oc3cc4cnn(C)c4cc3-c3cn[nH]c3)c(F)c2)c(=O)n1-c1ccc(F)cc1 | – | > 100 µM | > 100 µM | > 100 µM | > 100 µM | > 100 µM | > 100 µM | > 100 µM | > 100 µM | 6.8 µM | > 100 µM | 3.2 µM | > 100 µM | 30.4 nM | 3.54 µM | > 100 µM | > 100 µM | > 100 µM | 6100 nM | – |
| COS(=O)c1cc(Cl)cc(Cl)c1OC(=O)CSSCC(=O)Oc1c(Cl)cc(Cl)cc1S(=O)OC (configuration not stated) | 52.9 µM | 65.3 µM | 86.4 µM | 36.2 µM | 33.8 µM | 49.2 µM | 59.7 µM | 45.1 µM | 80.7 µM | – | – | – | – | – | – | – | – | – | – | – |
| CCOC(=O)C1=C(C)N(NC(N)=O)C2(N)N(NC(N)=O)C(C)=C(C(=O)OCC)C12C#N (configuration not stated) | – | > 100 µM | > 100 µM | > 100 µM | > 100 µM | > 100 µM | – | > 100 µM | > 100 µM | – | – | – | – | – | – | – | – | – | – | – |
| COc1ccc(/C=C/C(=O)c2c(-c3ccccc3)nn(C)c(=O)c2N2CCCCC2)cc1 | – | – | – | – | 30.2 µM | 86.5 µM | 40.2 µM | > 100 µM | 77.6 µM | – | – | – | – | – | – | – | – | – | – | – |
| OC1=CN=C(c2ccccc2)Oc2ccccc21 | > 100 µM | > 100 µM | > 100 µM | > 100 µM | > 100 µM | > 100 µM | > 100 µM | > 100 µM | > 100 µM | – | – | – | – | – | – | – | – | – | – | – |
| C1CN2CCO[SiH](O1)OCC2 | > 100 µM | > 100 µM | > 100 µM | > 100 µM | > 100 µM | > 100 µM | > 100 µM | – | > 100 µM | – | – | – | – | – | – | – | – | – | – | – |
| CNC(=O)OCc1nc(SSc2nc(COC(=O)NC)c(COC(=O)NC)n2C)n(C)c1COC(=O)NC | > 100 µM | > 100 µM | > 100 µM | > 100 µM | > 100 µM | > 100 µM | > 100 µM | > 100 µM | > 100 µM | – | – | – | – | – | – | – | – | – | – | – |
| CCCCCCCCCCCCCCCC(=O)OCC1OC(n2cc(F)c(=O)[nH]c2=O)C(NC(=O)OCc2ccccc2)C(O)C1O (configuration not stated) | 43.1 µM | – | 33.8 µM | 45 µM | – | 32.4 µM | 30 µM | 34.4 µM | 66 µM | – | – | – | – | – | – | – | – | – | – | – |
| CCOC(=O)c1cc(C(=O)c2ccc(OC)c(OC)c2)n2c1ccc1ccc3cccnc3c12 | > 100 µM | > 100 µM | – | 80.7 µM | > 100 µM | > 100 µM | > 100 µM | > 100 µM | > 100 µM | 25 µM | – | 2.25 µM | > 100 µM | 1300 nM | 3.7 µM | 4.02 µM | 5.07 µM | 3.13 µM | 1250 nM | 2780 nM |
| CCc1c(OC(C)=O)c2c(NC3OC(COC(C)=O)C(OC(C)=O)C(OC(C)=O)C3OC(C)=O)nc(SC)nc2oc1=O (configuration not stated) | > 100 µM | > 100 µM | > 100 µM | > 100 µM | – | > 100 µM | > 100 µM | > 100 µM | > 100 µM | – | – | – | – | – | – | – | – | – | – | – |
| C[n+]1cn(CC(=O)c2ccccc2)c(C(N)=O)c1N | > 100 µM | > 100 µM | > 100 µM | > 100 µM | > 100 µM | > 100 µM | > 100 µM | > 100 µM | > 100 µM | – | – | – | – | – | – | – | – | – | – | – |
| N#CC(C(=O)Nc1ccccc1)C1=C(Cl)C(=O)c2ccccc2C1=O (configuration not stated) | 20.5 µM | 12.8 µM | 34.5 µM | 50.7 µM | 32.1 µM | 36.3 µM | > 100 µM | 32.6 µM | > 100 µM | – | – | – | – | – | – | – | – | – | – | – |
| CCOC(=O)C[C@@]12CCCN[C@]1(C)CCc1ccccc12 | > 100 µM | – | > 100 µM | > 100 µM | > 100 µM | > 100 µM | > 100 µM | > 100 µM | > 100 µM | – | – | – | – | – | – | – | – | – | – | – |
| CCCCCCCCCCCCCC(=O)O[C@H]1CC[C@H](NC(=O)[C@H](OC)[C@H](O)[C@@H](O)[C@H](O)/C=C/C(C)C)C(=O)N(C)C1 | 2.43 µM and 3.71 µM | 15 µM and 13 µM | 15 µM and > 23.8 µM | 15 µM and 2.96 µM | 15 µM and 3.57 µM | 15 µM and > 23.8 µM | 15 µM and 4.85 µM | 15 µM and > 23.8 µM | 15 µM and > 23.8 µM | 0.00238 µM | 0.0139 µM | – | – | 2.38 nM | 0.00238 µM | 0.0194 µM | 0.0093 µM | 0.00238 µM | 230 nM | 2.38 nM |
| COc1cccc(-c2cc(=O)c3cc(N4CCN(C)CC4)ccc3[nH]2)c1 | 3.04 µM and 1.23 µM | – | – | 4.81 µM and 45.4 µM | > 100 µM | 8.41 µM | 5.89 µM | – | 9.29 µM and 87.2 µM | – | – | 3.72 µM | > 100 µM | 1350 nM | 3.99 µM | 3.84 µM | – | 0.598 µM | 2440 nM | 410 nM |
| Cc1ccc(-n2c3nc(=O)n(C)c(=O)c-3nc3ccccc32)c(C)c1 | 29.2 µM | 12.6 µM | 6.33 µM | 26.5 µM | – | 16.1 µM | 41.6 µM | 22.5 µM | 75.8 µM | – | – | – | – | – | – | – | – | – | – | – |
